Results published in article PMC6222329 (Molecules : A Journal of Synthetic Chemistry and Natural …, 2018).
Read-outs that look alike come from different tables or passages of the source.

Columns and labels:
BChE (Equine) = molecular target: T1, BChE (Equine) (Equus caballus, UniProt P81908); assay: biochemical; format: biochemical
T1 construct: purchased Sigma-Aldrich (Steinheim, Germany)
Summary of the method: (§1)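 Ellman's colorimetric assay run in two steps, with enzyme in 1% gelatin (2.5 units/mL) and reaction started with DTNB (10 mM) and substrate (75 mM), both stock concentrations.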

[1] = tested on: murine fibroblast healthy cell line (NIH3T3); assay: MTT cell viability assay; format: cell-based; conditions: 24 h, 0.000316 µM to 1000 µM, read-out: IC50 against NIH3T3
Experimental: (§2) The active compounds (4a, 4b, 4e, 4i, 4m, 4n, 4o, and 4t) were chosen to determine their cytotoxic activity toward a murine fibroblast healthy cell line (NIH3T3). After incubating the cells with active compounds at concentrations of 0.000316 µM to1000 µM for 24 h, the cell viability was measured using the 3-(4,5-dimethylthiazol-2-yl)-2,5-diphenyltetrazolium (MTT) assay. The inhibition percentage was calculated for each concentration of the test compounds. The IC50 values of the compounds were determined using a non-linear regression analysis over the calculated percentage inhibition values, and they are presented in Table 2. Accordingly, the cytotoxicity test proposed that the active derivatives were nontoxic against NIH3T3 cells at their active concentrations against BChE.
(§3) Healthy murine embryonic fibroblast cells (NIH3T3 cell line) were used for the cytotoxicity tests. The cell line and selected compounds were prepared for an MTT assay as reported previously. The optical densities (OD) of 96 well plates were recorded at 540 nm. […]

AChE (Human) = molecular target: T2, AChE (Human) (Homo sapiens, UniProt P22303); assay: AChE inhibition, Ellman's method; format: biochemical
T2 construct: purchased Sigma-Aldrich (Steinheim, Germany)
T2 sequence (P22303 32-614): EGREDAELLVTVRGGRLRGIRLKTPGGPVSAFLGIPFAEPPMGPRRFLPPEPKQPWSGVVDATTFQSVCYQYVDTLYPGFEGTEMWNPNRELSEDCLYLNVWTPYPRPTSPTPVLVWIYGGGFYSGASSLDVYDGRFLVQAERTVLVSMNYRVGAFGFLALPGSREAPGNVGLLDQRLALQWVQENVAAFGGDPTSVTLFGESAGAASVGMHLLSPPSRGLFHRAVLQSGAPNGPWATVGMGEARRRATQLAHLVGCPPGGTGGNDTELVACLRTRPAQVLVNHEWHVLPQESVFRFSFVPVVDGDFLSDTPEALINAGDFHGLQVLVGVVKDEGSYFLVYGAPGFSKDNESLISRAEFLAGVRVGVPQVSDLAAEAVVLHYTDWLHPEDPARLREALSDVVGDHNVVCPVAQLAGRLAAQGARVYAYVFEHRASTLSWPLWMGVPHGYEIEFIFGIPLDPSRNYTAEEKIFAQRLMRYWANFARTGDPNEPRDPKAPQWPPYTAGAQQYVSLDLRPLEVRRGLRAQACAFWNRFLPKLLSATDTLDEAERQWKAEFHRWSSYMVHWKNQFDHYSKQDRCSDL
Summary of the method: as §1

[2] = molecular target: T3, AChE (Electrophorus electricus) (Electrophorus electricus, UniProt O42275); assay: AChE inhibition, Ellman's method; format: biochemical
T3 construct: purchased Sigma-Aldrich (Steinheim, Germany)
T3 sequence (O42275 24-633): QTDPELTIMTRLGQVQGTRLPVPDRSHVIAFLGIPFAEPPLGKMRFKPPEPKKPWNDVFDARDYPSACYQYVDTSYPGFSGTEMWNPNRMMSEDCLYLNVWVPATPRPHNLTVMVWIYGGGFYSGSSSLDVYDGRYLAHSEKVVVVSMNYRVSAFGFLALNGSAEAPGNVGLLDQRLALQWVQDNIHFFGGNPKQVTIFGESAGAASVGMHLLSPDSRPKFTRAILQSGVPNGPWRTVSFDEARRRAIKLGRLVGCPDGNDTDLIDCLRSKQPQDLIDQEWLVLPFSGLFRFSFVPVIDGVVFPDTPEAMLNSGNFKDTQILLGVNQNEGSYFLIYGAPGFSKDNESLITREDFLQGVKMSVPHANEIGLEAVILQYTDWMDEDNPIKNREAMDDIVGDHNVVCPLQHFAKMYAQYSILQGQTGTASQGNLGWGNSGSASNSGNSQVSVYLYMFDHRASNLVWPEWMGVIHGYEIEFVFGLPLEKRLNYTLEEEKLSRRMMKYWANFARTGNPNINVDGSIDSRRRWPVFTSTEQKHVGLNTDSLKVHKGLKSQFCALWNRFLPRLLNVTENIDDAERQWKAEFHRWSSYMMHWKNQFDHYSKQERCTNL
Summary of the method: as §1

BChE (Human) = molecular target: T4, BChE (Human) (Homo sapiens, UniProt P06276); assay: BChE inhibition, Ellman's method; format: biochemical
T4 construct: purchased Sigma-Aldrich (Steinheim, Germany)
T4 sequence (P06276 29-602): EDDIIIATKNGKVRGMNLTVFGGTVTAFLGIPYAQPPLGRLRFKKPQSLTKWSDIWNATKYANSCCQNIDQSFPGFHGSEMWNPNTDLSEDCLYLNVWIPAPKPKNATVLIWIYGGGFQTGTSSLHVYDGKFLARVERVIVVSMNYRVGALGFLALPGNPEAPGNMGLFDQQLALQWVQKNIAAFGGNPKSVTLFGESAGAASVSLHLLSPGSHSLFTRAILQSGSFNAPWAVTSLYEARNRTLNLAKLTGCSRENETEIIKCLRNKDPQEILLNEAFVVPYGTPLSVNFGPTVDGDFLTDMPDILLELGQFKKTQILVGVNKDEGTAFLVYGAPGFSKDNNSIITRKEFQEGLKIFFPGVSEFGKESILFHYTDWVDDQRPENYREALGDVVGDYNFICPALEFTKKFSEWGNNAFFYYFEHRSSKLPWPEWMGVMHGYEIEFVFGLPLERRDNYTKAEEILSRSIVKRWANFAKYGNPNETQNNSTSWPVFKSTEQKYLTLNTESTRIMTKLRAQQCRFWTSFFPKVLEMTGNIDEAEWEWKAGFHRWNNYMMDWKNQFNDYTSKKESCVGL
Summary of the method: as §1

[3] = molecular target: T5, human butyrylcholinesterase (BChE) (Homo sapiens, UniProt P06276); assay: Enzyme kinetics of BChE inhibition (Lineweaver-Burk plots); format: biochemical
T5 construct: purchased Sigma-Aldrich (Steinheim, Germany)
T5 sequence (P06276 29-602): as above
Description: To recognize the inhibition type, enzyme kinetics studies were applied using Lineweaver–Burk plots. […]. […] This pattern also indicates a mixed-type inhibition.
The calculation of the inhibition constant (Ki) is an effective tool for measuring the affinity of an enzyme for […], and it is easily determined using the secondary plots of the Lineweaver–Burk equation. […].
In the kinetics studies, the assay protocol specified for the inhibition assay was identical. […]. Measurements were performed one of two ways, in the presence and in the absence of the inhibitor. […]. After addition of BChE (20 μL/well), the mixture was incubated under the same conditions as the activity assay. Then, the reaction was initiated by the addition of Ellman’s reagent (DTNB; 20 µL/well, 10 mM) and the substrate (10 µL/well, 75 mM). The absorbance was measured for 10 min at 412 nm. The enzyme solution was processed as a control. All readings were adjusted with blank-reading. The results were analyzed as Lineweaver–Burk plots using Microsoft Office Excel 2013 [15].

MTT cell viability assay = format: cell-based, murine; conditions: mouse, NIH3T3 murine embryonic fibroblast cells, 0.000316 µM to 1000 µM, read-out: IC50 against NIH3T3
Experimental: as §2, §3

[4] = read-out: AChE (Human) inhibitory activity (%) ± SD
[5] = read-out: AChE (Electrophorus electricus) inhibitory activity (%) ± SD
[6] = read-out: BChE (Human) inhibitory activity (%) ± SD

T1 sequence (P81908 whole entry): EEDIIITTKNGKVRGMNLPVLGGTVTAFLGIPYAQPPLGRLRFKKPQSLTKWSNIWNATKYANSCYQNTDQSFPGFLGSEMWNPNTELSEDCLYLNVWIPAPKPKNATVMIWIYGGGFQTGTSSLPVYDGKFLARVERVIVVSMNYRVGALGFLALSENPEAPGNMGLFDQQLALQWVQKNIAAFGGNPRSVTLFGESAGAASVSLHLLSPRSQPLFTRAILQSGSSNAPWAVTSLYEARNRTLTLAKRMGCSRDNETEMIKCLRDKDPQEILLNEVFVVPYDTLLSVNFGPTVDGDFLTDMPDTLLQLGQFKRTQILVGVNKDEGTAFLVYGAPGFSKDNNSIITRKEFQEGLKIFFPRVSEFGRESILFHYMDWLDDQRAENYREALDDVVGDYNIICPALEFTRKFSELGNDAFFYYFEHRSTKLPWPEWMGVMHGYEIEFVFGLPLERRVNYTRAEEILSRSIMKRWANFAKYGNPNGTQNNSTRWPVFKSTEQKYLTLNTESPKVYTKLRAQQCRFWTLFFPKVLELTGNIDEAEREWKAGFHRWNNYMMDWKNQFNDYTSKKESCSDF

For `O=C(CSC(=S)N1CCN(C(c2ccccc2)c2ccccc2)CC1)Nc1c2ccccc2nc2ccccc12` [Compound 4m, 2-(9-Acridinylamino)-2-oxoethyl 4-benzhydrylpiperazine-1-carbodithioate], the IC50 (BChE (Equine)) was 0.092 ± 0.001 µM, the “BChE (Equine) inhibitory activity (%) ± SD” value (BChE (Equine); 10^-3 M) was 99.65±3.86% and the “BChE (Equine) inhibitory activity (%) ± SD” value (BChE (Equine); 10^-4 M) was “* 98.96 ± 3.47%”. For the same molecule, the “BChE (Equine) inhibitory activity (%) ± SD” value (BChE (Equine); 10^-5 M) was 90.78±3.92%, the “BChE (Equine) inhibitory activity (%) ± SD” value (BChE (Equine); 10^-6 M) was 80.30±2.56% and the “BChE (Equine) inhibitory activity (%) ± SD” value (BChE (Equine); 10^-7 M) was 40.34±0.61%. The “BChE (Equine) inhibitory activity (%) ± SD” value (BChE (Equine); 10^-8 M) was 30.24±0.70%, the “BChE (Equine) inhibitory activity (%) ± SD” value (BChE (Equine); 10^-9 M) was 18.98±0.20% and the IC50 [1] was 214 µM. The “AChE (Human) inhibitory activity (%) ± SD” value (AChE (Human); 10^-3 M) was 75.18±1.21%, the “AChE (Human) inhibitory activity (%) ± SD” value (AChE (Human); 10^-4 M) was 27.38 ± 1.10% and the “AChE (Electrophorus electricus) inhibitory activity (%) ± SD” value ([2]; 10^-3 M) was 71.23±2.15%. For the same molecule, the “AChE (Electrophorus electricus) inhibitory activity (%) ± SD” value ([2]; 10^-4 M) was 25.43 ± 1.21%, the “BChE (Human) inhibitory activity (%) ± SD” value (BChE (Human); 10^-3 M) was 98.18±2.71% and the “BChE (Human) inhibitory activity (%) ± SD” value (BChE (Human); 10^-4 M) was “* 97.50 ± 2.06%”. The “BChE (Human) inhibitory activity (%) ± SD” value (BChE (Human); 10^-5 M) was 92.54±2.45%, the “BChE (Human) inhibitory activity (%) ± SD” value (BChE (Human); 10^-6 M) was 81.25±2.08% and the “BChE (Human) inhibitory activity (%) ± SD” value (BChE (Human); 10^-7 M) was 44.61±0.79%. The “BChE (Human) inhibitory activity (%) ± SD” value (BChE (Human); 10^-8 M) was 29.11±0.63%, the “BChE (Human) inhibitory activity (%) ± SD” value (BChE (Human); 10^-9 M) was 17.00±0.33% and the “fold better BChE inhibition in comparison with donepezil” value (BChE (Human); ratio of IC50 values) was 15.4 fold. It also gave an IC50 (BChE (Human); read-out: BChE (Human) IC50) of 0.093 ± 0.002 µM.
With `O=C(CSC(=S)N1CCN(Cc2ccc(C(F)(F)F)cc2)CC1)Nc1c2ccccc2nc2ccccc12` [Compound 4n, 2-(9-Acridinylamino)-2-oxoethyl 4-(4-(trifluoromethyl)benzyl)piperazine-1-carbodithioate] the “inhibition type of BChE” value ([3]; Lineweaver-Burk plot, inhibitor at IC50/2, IC50, 2 x IC50) was “mixed inhibition”, the Ki ([3]; secondary plot of Lineweaver-Burk, substrate BTCI, read-out: steady-state inhibition constant (Ki) against BChE) was 0.0175 µM and the IC50 (BChE (Equine)) was 0.015 ± 0.0006 µM. It also gave an inhibition at 1000 µM (BChE (Equine); 10^-3 M, read-out: BChE (Equine) inhibitory activity (%) ± SD) of 99.5 ± 2.97%, an inhibition at 100 µM (BChE (Equine); 10^-4 M, read-out: BChE (Equine) inhibitory activity (%) ± SD) of 99% and an inhibition at 10 µM (BChE (Equine); 10^-5 M, read-out: BChE (Equine) inhibitory activity (%) ± SD) of 92.5 ± 2.86%. For the same molecule, the inhibition at 1 µM (BChE (Equine); 10^-6 M, read-out: BChE (Equine) inhibitory activity (%) ± SD) was 81.3 ± 1.25%, the inhibition at 0.1 µM (BChE (Equine); 10^-7 M, read-out: BChE (Equine) inhibitory activity (%) ± SD) was 49.3 ± 0.58% and the inhibition at 0.01 µM (BChE (Equine); 10^-8 M, read-out: BChE (Equine) inhibitory activity (%) ± SD) was 43.7 ± 1.11%. The inhibition at 0.001 µM (BChE (Equine); 10^-9 M, read-out: BChE (Equine) inhibitory activity (%) ± SD) was 39.25 ± 0.22%, the IC50 at 24 h (MTT cell viability assay) was > 1000 µM and the IC50 (AChE (Human)) was 41.1 ± 1.69 µM. The inhibition at 0.001 µM (AChE (Human); [4]) was 3 ± 0.12%, the inhibition at 0.01 µM (AChE (Human); [4]) was 5.51 ± 0.17% and the inhibition at 0.1 µM (AChE (Human); [4]) was 9.18 ± 0.22%. The inhibition at 1 µM (AChE (Human); [4]) was 10.5 ± 0.37%, the inhibition at 10 µM (AChE (Human); [4]) was 18.5 ± 0.54% and the inhibition at 100 µM (AChE (Human); [4]) was 68.4%. For the same molecule, the inhibition at 1000 µM (AChE (Human); [4]) was 83.3 ± 1.78%, the IC50 [2] was 45.9 ± 1.58 µM and the inhibition at 0.001 µM [2, 5] was 6.91 ± 0.27%. It also gave an inhibition at 0.01 µM [2, 5] of 8.43 ± 0.38%, an inhibition at 0.1 µM [2, 5] of 11.3 ± 0.61% and an inhibition at 1 µM [2, 5] of 14.6 ± 0.76%. It also gave an inhibition at 10 µM [2, 5] of 22.4 ± 0.8%, an inhibition at 100 µM [2, 5] of 63.2% and an inhibition at 1000 µM [2, 5] of 81 ± 2.65%. For the same molecule, the IC50 (BChE (Human)) was 0.014 ± 0.0005 µM, the inhibition at 0.001 µM (BChE (Human); [6]) was 37.2 ± 0.69% and the inhibition at 0.01 µM (BChE (Human); [6]) was 43.6 ± 0.84%. The inhibition at 0.1 µM (BChE (Human); [6]) was 50.5 ± 0.69%, the inhibition at 1 µM (BChE (Human); [6]) was 83.2 ± 1.07% and the inhibition at 10 µM (BChE (Human); [6]) was 93.7 ± 2.45%. The inhibition at 100 µM (BChE (Human); [6]) was 98.2% and the inhibition at 1000 µM (BChE (Human); [6]) was 99.3 ± 2.1%.
For `Cc1ccc(CN2CCN(C(=S)SCC(=O)Nc3c4ccccc4nc4ccccc34)CC2)cc1` [Compound 4o, 2-(9-Acridinylamino)-2-oxoethyl 4-(4-methylbenzyl)piperazine-1-carbodithioate], the IC50 (BChE (Equine)) was 1.07 ± 0.051 µM, the “BChE (Equine) inhibitory activity (%) ± SD” value (BChE (Equine); 10^-3 M) was 98.64±3.86% and the “BChE (Equine) inhibitory activity (%) ± SD” value (BChE (Equine); 10^-4 M) was “* 74.83 ± 2.17%”. The “BChE (Equine) inhibitory activity (%) ± SD” value (BChE (Equine); 10^-5 M) was 46.33±0.91%, the “BChE (Equine) inhibitory activity (%) ± SD” value (BChE (Equine); 10^-6 M) was 42.99±0.97% and the “BChE (Equine) inhibitory activity (%) ± SD” value (BChE (Equine); 10^-7 M) was 35.48±0.67%. For the same molecule, the “BChE (Equine) inhibitory activity (%) ± SD” value (BChE (Equine); 10^-8 M) was 25.36±0.49%, the “BChE (Equine) inhibitory activity (%) ± SD” value (BChE (Equine); 10^-9 M) was 16.54±0.56% and the IC50 [1] was > 1000 µM. For the same molecule, the “AChE (Human) inhibitory activity (%) ± SD” value (AChE (Human); 10^-3 M) was 90.29±2.18%, the “AChE (Human) inhibitory activity (%) ± SD” value (AChE (Human); 10^-4 M) was 30.45 ± 1.15% and the “AChE (Electrophorus electricus) inhibitory activity (%) ± SD” value ([2]; 10^-3 M) was 94.97±3.61%. For the same molecule, the “AChE (Electrophorus electricus) inhibitory activity (%) ± SD” value ([2]; 10^-4 M) was 25.30 ± 1.01%, the “BChE (Human) inhibitory activity (%) ± SD” value (BChE (Human); 10^-3 M) was 99.25±2.63% and the “BChE (Human) inhibitory activity (%) ± SD” value (BChE (Human); 10^-4 M) was “* 75.25 ± 2.08%”. For the same molecule, the “BChE (Human) inhibitory activity (%) ± SD” value (BChE (Human); 10^-5 M) was 48.19±1.12%, the “BChE (Human) inhibitory activity (%) ± SD” value (BChE (Human); 10^-6 M) was 41.37±0.95% and the “BChE (Human) inhibitory activity (%) ± SD” value (BChE (Human); 10^-7 M) was 37.90±0.71%. The “BChE (Human) inhibitory activity (%) ± SD” value (BChE (Human); 10^-8 M) was 24.71±0.55%, the “BChE (Human) inhibitory activity (%) ± SD” value (BChE (Human); 10^-9 M) was 20.80±0.48% and the IC50 (BChE (Human); read-out: BChE (Human) IC50) was 1.07 ± 0.039 µM.
